# Measurements as given in ChEMBL document CHEMBL5604062, “ASAP - ZIKV NS2B-NS3 protease fluorescence dose response” (2024).
# Several values for one entry are separate records, joined by “and”; a condition that tells them apart may be missing. Equal entries are not always repeated.
# Target: Nonstructural protein 3 (Zika virus, UniProt A0A024AXB9)
# Assay: Functional biochemical assay to identify treatments for viral infectious disease that targets Zika NS2B-NS3 protease. Utilizing a direct enzyme activity measurement method, reading the fluorescence intensity is used to characterize the relative potency of inhibitors as IC50.
# Design: species or system PRVABC59
# Sequence of Nonstructural protein 3 (A0A024AXB9 whole entry): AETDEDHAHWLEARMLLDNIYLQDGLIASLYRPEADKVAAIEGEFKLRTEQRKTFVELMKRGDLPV
row,SMILES,IC50
1,c1ccc(-c2c[nH]nc2CN2CCC(c3cscn3)CC2)cc1,> 99.5 µM
2,O=C(Nc1ccc2c(c1)CNC2)c1ccc2ncccc2c1,> 25 µM
3,CCn1c(=O)c(N2C[C@@H]3[C@H](C2)[C@H]2CC[C@@H]3O2)nc2ccccc21,> 99.5 µM
4,O=C(Nc1cccc(-n2nn[nH]c2=O)c1)c1cc(Cl)cc2c1CCC2,> 99.5 µM
5,NCc1cccc(NC(=O)c2cc(NC(=O)OCc3ccccc3)cc(Cl)c2Cl)c1,43.9 µM
6,Cc1cc(C(=O)Nc2cccc(CN)c2)c(NC(=O)[C@H]2CCCO2)s1,5.86 µM
7,NCc1cccc(NC(=O)[C@H](NC(=O)C2CCC2)c2ccc(OCc3ccccc3)cc2)c1,> 99.5 µM
8,Cc1cc(C(=O)O)c(NS(=O)(=O)c2ccc(Oc3ccccc3)cc2)cc1F,68.5 µM
9,NCc1cccc(NC(=O)[C@H](NC(=O)C2CCCCC2)c2ccc(OCc3ccccc3)cc2)c1,22.3 µM and 20 µM
10,c1cncc(-c2cc(CN3CCC(c4cscn4)CC3)n[nH]2)c1,> 99.5 µM
11,O=C(Nc1ccc2c(c1)CNC2)c1cc(F)cc(C2=CCCOC2)c1,0.295 µM
12,O=C(Nc1ccc2c(c1)OCCNC2)c1cc(Cl)cc2[nH]ncc12,1.66 µM
13,C=CC[C@H]1NCc2cc(NC(=O)c3cc(Cl)cc4[nH]ncc34)ccc21,0.449 µM
14,CC(C)[C@H](CC(=O)O)NC(=O)c1cc(Cl)cc(NC(=O)OCc2ccccc2)c1,> 99.5 µM
15,O=C(Nc1ccc2c(c1)CNC2)N1CCC[C@H](Cc2nccs2)C1,> 25 µM
16,CCn1cc(-c2ccc(C(F)F)nc2)nc(N2CC[C@@H](CO)C2)c1=O,> 99.5 µM
17,NC[C@H]1CC[C@H](CNC(=O)c2cc(Cl)cc(NC(=O)OCc3ccccc3)c2)CC1,25.4 µM and 25.7 µM
18,O=C(NCc1ccc2c(c1)CCNC2)c1cc(Cl)cc2[nH]ncc12,23.2 µM
19,NCc1cccc(NC(=O)[C@H](NC(=O)[C@H]2CCOC2)c2ccc(OCc3ccccc3)cc2)c1,> 99.5 µM
20,CS(=O)(=O)c1cncc(-c2cccc([C@H](NC(=O)OCc3ccccc3)C(=O)Nc3cccc(CN)c3)c2)c1,60.8 µM
21,O=C(Nc1ccc2c(c1)CNC2)c1cccc2sccc12,0.456 µM
22,C[C@H]1CN(C(=O)c2cccc3c(CN)cccc23)CCC12CCNCC2,> 99.5 µM
23,O=C1Cc2c(cccc2C(=O)Nc2ccc3c(c2)CNCCC3)N1,0.569 µM
24,c1ccc2c(CN[C@H]3CCc4c([nH]c5ccccc45)C3)n[nH]c2c1,> 99.5 µM
25,CCCCCC(=O)N[C@H](C(=O)NCc1cccc(CN)c1)c1ccc(OCc2ccccc2)cc1,73.3 µM and 80.1 µM
26,O=C(O)CCCc1cccc(NC(=O)c2cc(Cl)cc(NC(=O)OCc3ccccc3)c2)c1,84.3 µM

row,SMILES,IC50
1,NCc1cccc(NC(=O)[C@H](NC(=O)OCc2ccccc2)C(C2CCC2)C2CCC2)c1,> 99.5 µM
2,N#C[C@H](c1cc(Cl)cc(C2CC2)c1)N1c2cnccc2C[C@H]1C(=O)O,> 99.5 µM
3,CN(C)CCc1ccc(CNC(=O)[C@@H](NC(=O)OCc2ccccc2)c2ccc(OCc3ccccc3)cc2)cc1,54.6 µM
4,Cc1ccc(S(=O)(=O)N2CCC(NS(=O)(=O)c3ccc(Cl)cc3C(=O)O)CC2)cc1,> 99.5 µM
5,O=C(Nc1cc(Cl)cc(C(=O)Nc2cccc(Cc3nn[nH]n3)c2)c1)OCc1ccccc1,64.9 µM
6,CS(=O)(=O)NC(=O)c1cc(CN)cc(NC(=O)c2cc(Cl)cc(NC(=O)OCc3ccccc3)c2)c1,7.05 µM
7,O=C(Nc1ccc2c(n1)CNC2)c1cc(Cl)cc2[nH]ncc12,0.608 µM
8,CC(=O)N[C@@H](C(=O)Nc1cccc(CN)c1)c1ccc(OCc2ccccc2)cc1,> 99.5 µM
9,N[C@H]1COC[C@H]1n1cc(C(=O)Nc2cc(-c3cccnc3)ccn2)cn1,> 25 µM
10,O=C(Nc1cc(Cl)cc(C(=O)Nc2ccnc(C(=O)O)c2)c1)OCc1ccccc1,> 99.5 µM
11,O=C(O)COc1cccc(NC(=O)c2cc(Cl)cc(NC(=O)OCc3ccccc3)c2)c1,> 99.5 µM
12,O=C(Nc1cc(-c2cccnc2)ccn1)c1cc2n(n1)CCS2(=O)=O,> 25 µM
13,CN(c1ccc(Oc2ccccc2Cl)cc1)S(=O)(=O)c1cc(F)c(Cl)cc1C(=O)O,> 99.5 µM
14,NCc1cccc(NC(=O)[C@@H](NC(=O)OCc2ccccc2)C2CCN(S(=O)(=O)[C@H]3CCOC3)CC2)c1,> 99.5 µM
15,CNCc1cccc(NC(=O)c2cc(Cl)cc(NC(=O)OCc3ccccc3)c2)c1,19.6 µM
16,O=C(Nc1cc([C@H]2CCOC2)ccn1)c1cc(Cl)cc2c1CCC2,> 25 µM
17,CC1=NN(c2ccc(NS(=O)(=O)c3ccc(Cl)cc3C(=O)O)cn2)C(=O)C1,> 99.5 µM
18,CCn1cc(C(=O)N2CCN(C)CC2)nc(N2CC[C@@H](CO)C2)c1=O,> 99.5 µM
19,O=C(O)c1cc2c(cc1NS(=O)(=O)c1ccc(Oc3ccccc3Cl)cc1)CCC2,17.5 µM
20,C#Cc1ccnc(NC(=O)c2cc(C3CC3)n(C)c2C)c1,> 25 µM
21,CCn1c(=O)c(N2C[C@H]3CCS(=O)(=O)[C@H]3C2)nc2ccccc21,> 99.5 µM
22,O=C(Nc1ccc(Cl)cc1C(=O)O)c1ccc(Oc2ccccc2Cl)cc1,> 99.5 µM
23,O=C(Nc1ccc2c(c1)CNCCC2)c1cc(Cl)cc2[nH]ncc12,0.376 µM
24,O=C(O)c1cc(Cl)cc(NS(=O)(=O)c2ccc(-c3ccc(F)cc3)cc2)c1,75.7 µM
25,Cc1c(C(=O)Nc2cc(-c3cccnc3)ccn2)c2ccccc2n1C,> 25 µM
26,CNc1c(-c2cc(Cl)cc(C3CC3)c2)nc2cc(C(=O)O)ccn12,> 99.5 µM

row,SMILES,IC50
1,CC(C)(C)OC(=O)Cn1ccnc(N2CC[C@@H](CO)C2)c1=O,> 99.5 µM
2,O=C(O)c1cc(Cl)ccc1NS(=O)(=O)c1ccc(OCc2ccncc2)cc1,> 99.5 µM
3,NCc1cccc(NC(=O)c2cc(Cl)ccc2NS(=O)(=O)c2ccccc2)c1,> 99.5 µM
4,Cc1c(C(=O)Nc2cccc(CN)c2)cc(C(C)C)n1C,> 99.5 µM
5,CCCNC(=O)Cn1ccnc(N2CC[C@H](CO)C2)c1=O,> 99.5 µM
6,Cc1c(CN)cccc1NC(=O)c1cc(Cl)cc(NC(=O)OCc2ccccc2)c1,44.7 µM
7,CCOCC(=O)N1CCC([C@H](NC(=O)OCc2ccccc2)C(=O)Nc2cccc(CN)c2)CC1,> 99.5 µM
8,CC(C)(C#N)CS(=O)(=O)N1CCC([C@H](NC(=O)OCc2ccccc2)C(=O)Nc2cccc(CN)c2)CC1,> 99.5 µM
9,O=C(NCC(F)F)[C@H](Nc1ccc2c(c1)CNC2)c1cc(Cl)cc2[nH]ncc12,0.291 µM
10,O=C1NCc2ccccc2C12CCN(Cc1cc3ccc(F)cc3[nH]1)CC2,> 99.5 µM
11,COC(=O)[C@@H](C)NC(=O)c1cc(Cl)ccc1NS(=O)(=O)c1ccc(Oc2ccccc2Cl)cc1,> 99.5 µM
12,C[C@]1(C(=O)N[C@H](C(=O)Nc2cccc(CN)c2)c2ccc(OCc3ccccc3)cc2)COc2ccccc2O1,17.2 µM
13,O=C(O)c1cc(Cl)ccc1NS(=O)(=O)c1ccc(-c2cccc(F)c2F)cc1,25.7 µM
14,CN(C)Cc1cc(NC(=O)c2cc(Cl)cc(NC(=O)OCc3ccccc3)c2)sn1,> 99.5 µM
15,Cc1nnc(CN2CCC([C@H](NC(=O)OCc3ccccc3)C(=O)Nc3cccc(CN)c3)CC2)s1,> 99.5 µM
16,NCCCCc1ccc(NC(=O)c2cc(Cl)cc(NC(=O)OCc3ccccc3)c2)cc1,5.42 µM
17,NCc1cccc(CNC(=O)[C@@H](NC(=O)OCc2ccccc2)c2ccc(OCc3ccccc3)cc2)c1,19 µM and 11.6 µM
18,N#Cc1csc(CN2CCC([C@H](NC(=O)OCc3ccccc3)C(=O)Nc3cccc(CN)c3)CC2)c1,> 99.5 µM
19,O=C(O)c1nn(-c2ccccc2)cc1Cc1c[nH]c2ccc(Cl)cc12,> 99.5 µM
20,O=C(N[C@@H](C(=O)Nc1n[nH]c2c1CNC21CC1)c1ccc(OCc2ccccc2)cc1)OCc1ccccc1,> 99.5 µM
21,N#Cc1ccc(S(=O)(=O)CCn2nc(-c3ccco3)oc2=O)cc1,> 99.5 µM
22,O=C(Nc1ccc2c(c1)CNC2)c1cc(Cl)cc(C(F)(F)F)n1,21 µM
23,CCn1c(=O)c(N2CC[C@H](CO)C2)nc2cc(C(=O)O)ccc21,> 99.5 µM
24,NCc1cccc(NC(=O)c2cccc(NC(=O)OCc3ccccc3)n2)c1,> 99.5 µM
25,c1ccc(CC2CCN(Cc3c[nH]c4ccccc34)CC2)cc1,89.6 µM
26,C#C[C@H](Nc1cc([C@H]2CCOC2)ccn1)c1cc(C2CC2)n(C)n1,> 25 µM

row,SMILES,IC50
1,Cc1ccc(NC(=O)c2cc(C3CC3)n(C)c2C)cc1CN,> 99.5 µM
2,CCNC(=O)c1ccc2nc(N3CC[C@H](CO)C3)c(=O)n(CC)c2c1,> 99.5 µM
3,CCn1c(=O)c(N2CC3(CCCCC3)C[C@H]2CO)nc2ccccc21,> 99.5 µM
4,N[C@H]1C[C@H](CNC(=O)[C@@H](NC(=O)OCc2ccccc2)c2ccc(OCc3ccccc3)cc2)C1,> 99.5 µM
5,CNc1nc2cc(-c3ccc4c(c3)C[C@H](N)C4)ccc2o1,> 99.5 µM
6,CCc1cc(C(=O)Nc2cccc(-c3nnn[nH]3)c2)sc1-c1ccc(Cl)cc1,11.8 µM and 16.7 µM
7,N#Cc1cc(NC(=O)OCc2ccccc2)cc(C(=O)Nc2cccc(CN)c2)c1,15.4 µM
8,O=Cc1ccc(N2CCC(C(=O)N3CCN(c4ccc([N+](=O)[O-])cc4C(F)(F)F)CC3)CC2)cc1,> 0.782 µM
9,CC1CCN(CCCCNC(=O)C2CCN(c3ccc(C=O)cc3)CC2)CC1,> 24.9 µM
10,O=C(O)c1cc(Cc2c[nH]c3ccc(Cl)cc23)cc(C2CC2)n1,> 99.5 µM
11,N#CCc1cccc(NC(=O)c2cc(Cl)cc(NC(=O)OCc3ccccc3)c2)c1,> 99.5 µM
12,COCCc1ccnc(NC(=O)c2cc(C3CC3)n(C)c2C)c1,> 25 µM
13,CN1CCc2ccc(C(=O)N3CCNc4ccccc4C3)cc2C1,> 99.5 µM
14,O=C(Nc1cc(Cl)cc(-c2ccc3[nH]nc(C(=O)O)c3c2)c1)OCc1ccccc1,17.8 µM
15,NCCc1csc2cc(C(=O)Nc3cc([C@H]4CCOC4)ccn3)ccc12,> 25 µM
16,O=C(Nc1ccc2c(c1)CNC2)c1cc(=O)[nH]c2c(F)cccc12,18.7 µM
17,CN1CCc2nc(NC(=O)c3cc(Cl)cc(NC(=O)OCc4ccccc4)c3)sc2C1,> 99.5 µM
18,O=C(Nc1ccc2c(c1)CNC2)c1ccc2nc(O)sc2c1,> 25 µM
19,O=Cc1ccc(N2CCC(C(=O)NCCc3ccccc3[N+](=O)[O-])CC2)cc1,> 50.2 µM
20,O=C1COc2c(cccc2N2CCN(Cc3c[nH]c4ccccc34)CC2)N1,69.8 µM
21,CCn1c(=O)c(N2CCC[C@H]2c2nncs2)nc2ccccc21,> 99.5 µM
22,CC(C)NC(=O)[C@H](Nc1ccc2c(c1)CN(C)C2)c1cc(Cl)cc2[nH]ncc12,0.533 µM
23,CNC(=O)[C@H](Nc1cc(CN)cc(C(=O)O)c1)c1cc(Cl)cc(C2CC2)c1,0.795 µM
24,CCn1c(=O)c(N2CCC[C@H]2c2ncccn2)nc2ccccc21,> 99.5 µM
